According to patent US9856242B2, “5-fluoro-N-(pyridin-2-yl)pyridin-2-amine derivatives containing a sulfone group” (Bayer Pharma Aktiengesellschaft, priority 2014, dated 2018):

Key:
[1] = molecular target: T1, CDK2/CycE (Homo sapiens, UniProt P24941); assay: CDK2/CycE high ATP kinase assay (Method 2b, TR-FRET, 2 mM ATP); type: biochemical
T1 construct: GST; purchased ProQinase GmbH (Freiburg, Germany); host or cells: insect cells (Sf9)
Experimental: 2b. CDK2/CycE High ATP Kinase Assay
CDK2/CycE-inhibitory activity of compounds of the present invention at 2 mM adenosine-tri-phosphate (ATP) was quantified employing the CDK2/CycE TR-FRET (TR-FRET=Time Resolved Fluorescence Energy Transfer) assay as described in the following paragraphs.
Recombinant fusion proteins of GST and human CDK2 and of GST and human CycE, expressed in insect cells (Sf9) and purified by Glutathion-Sepharose affinity chromatography, were purchase from ProQinase GmbH (Freiburg, Germany). As substrate for the kinase reaction biotinylated peptide biotin-Ttds-YISPLKSPYKISEG (C-terminus in amid form) was used which can be purchased e.g. form the company JERINI peptide technologies (Berlin, Germany). […]
The resulting mixture was incubated 1 h at 22° C. to allow the formation of complex between the phosphorylated biotinylated peptide and the detection reagents. Subsequently the amount of phosphorylated substrate was evaluated by measurement of the resonance energy transfer from the Eu-chelate to the streptavidine-XL. Therefore, the fluorescence emissions at 620 nm and 665 nm after excitation at 350 nm wer measured in a TR-FRET reader, e.g. a Rubystar (BMG Labtechnologies, Offenburg, Germany) or a Viewlux (Perkin-Elmer). […]

[2] = test system: A2780 cells; assay: Proliferation assay (Method 3), A2780; type: cell-based; settings: A2780, 96 h; human ovarian carcinoma, 4 days, crystal violet; read-out: Inhibition of A2780 cell proliferation IC50
Experimental: Cultivated tumour cells (HeLa, human cervical tumour cells, ATCC CCL-2; NCI-H460, human non-small cell lung carcinoma cells, ATCC HTB-177; A2780, human ovarian carcinoma cells, ECACC #93112519; DU 145, hormone-independent human prostate carcinoma cells, ATCC HTB-81; HeLa-MaTu-ADR, multidrug-resistant human cervical carcinoma cells, EPO-GmbH Berlin; Caco-2, human colorectal carcinoma cells, ATCC HTB-37; B16F10, mouse melanoma cells, ATCC CRL-6475) were plated at a density of 5,000 cells/well (DU145, HeLa-MaTu-ADR), 3,000 cells/well (NCI-H460, HeLa), 2,500 cells/well (A2780), 1,500 cells/well (Caco-2), or 1,000 cells/well (B16F10) in a 96-well multititer plate in 200 μL of their respective growth medium supplemented 10% fetal calf serum. […] Cell proliferation was determined by staining the cells with crystal violet: the cells were fixed by adding 20 μl/measuring point of an 11% glutaric aldehyde solution for 15 minutes at room temperature. […] The extinction was determined by photometry at a wavelength of 595 nm. The change of cell number, in percent, was calculated by normalization of the measured values to the extinction values of the zero-point plate (=0%) and the extinction of the untreated (0 μm) cells (=100%). […]

Row | SMILES | IC50 [1] [nM] | IC50 [2] [nM]
1 | CS(=O)(=O)Cc1ccnc(Nc2cc(-c3ccc(F)c4ccoc34)c(F)cn2)c1 [Example 1, 5-Fluoro-4-(4-fluoro-1-benzofuran-7-yl)-N-{4-[(methylsulfonyl)methyl]pyridin-2-yl}pyridin-2-amine] | 535 | –
2 | CS(=O)(=O)Cc1cc(F)nc(Nc2cc(-c3ccc(F)c4ccoc34)c(F)cn2)c1 [Example 2, 5-Fluoro-4-(4-fluoro-1-benzofuran-7-yl)-N-{6-fluoro-4-[(methylsulfonyl)methyl]pyridin-2-yl}pyridin-2-amine] | 517 | 24
